Results from PMC7730452, “Citrullination-Resistant LL-37 Is a Potent Antimicrobial Agent in the Inflammatory Environment High in Arginine Deiminase Activity” (International Journal of Molecular Sciences, 2020).
Values after ≈ are worked out from the molar mass of the structure shown. Read-outs that look alike come from different tables or passages of the source.

Tests used:
venous leg ulcers = details: patients with venous leg ulcers; cited from earlier work
Description: Current research is partly focused on peptide-based compounds.

[1] = cited from earlier work
Description: The slower hydrolysis rate of homoarginine-containing peptides compared with their arginine-containing counterparts depend ...

HaCaT cells = test: LDH release cytotoxicity assay; type: cell-based, human; details: 24 h, n = 2
Protocol: The cell line of human immortalized keratinocytes (HaCaT) was obtained from American Type Culture Collection (ATCC, Manassas, VA, USA) and cultured in DMEM (Gibco, Life Technologies, Paisley, UK) supplemented with 10% heat-inactivated fetal bovine serum (FBS) and PEST (100 U/mL penicillin and 100 U/mL streptomycin) at 37 °C in humidified 5% CO2 atmosphere. Cells were passaged every 4–5 days. To assess the effect of peptides on the integrity of the plasma membrane, the LDH release assay was performed using the CytoTox96 nonradioactive cytotoxicity assay kit (Promega, Madison, WI, USA) according to the manufacturer’s instructions. Cytotoxicity was calculated with the formula: % cytotoxicity = 100 × (experimental LDH release/maximum LDH release), where maximum LDH release occurs after the addition of lysis solution (Triton X-100). Relative amounts of LDH release were measured (absorbance at 490 nm) using FlexStation 3 Multimode Microplate Reader (Molecular Device, Wokingham, UK). All assays were performed in duplicate.

V8 protease = V8 protease (Staphylococcus aureus, UniProt P0C1U8); test: Degradation by protease, SDS-PAGE; details: 5 μg peptide, 0.05 μg protease, PBS, 25 μL, 37 °C, 1 h and 18 h, Coomassie
Protocol: (§1) After incubation samples were immediately frozen at −80 °C. Samples were separated on SDS-PAGE under denaturing condition in 4–16% gels. After separation, the gels underwent colloid Coomassie staining.

aureolysin = aureolysin (Staphylococcus aureus, UniProt P81177); test: Degradation by protease, SDS-PAGE; details: 5 μg peptide, 0.05 μg protease, PBS, 25 μL, 37 °C, 1 h and 18 h, Coomassie
Protocol: as §1

cathepsin G = cathepsin G (Homo sapiens, UniProt P08311)
Protocol: as §1

P. aeruginosa = type: cell-based, Pseudomonas aeruginosa (clinical isolate)
Protocol: (§2) Escherichia coli ATCC 25922 and Pseudomonas aeruginosa (clinical isolate) were inoculated from stocks into 20 mL LB Broth Lennox, while Staphylococcus aureus Δaur (8325-4 Δaur) into 20 mL TSB and grown overnight at 37 °C under constant rotation (180 rpm) to a mid-logarithmic growth phase. Then they were centrifuged at 5000× g for 5 min, washed in PBS, and resuspended in PBS to the desired OD (600 nm).
(§3) Mueller-Hinton broth (MHB, Sigma-Aldrich) was used as the working medium for all bacterial strains. Briefly, inoculum was prepared from freshly grown cultures of bacteria being at their exponential phase of growth. Each well of 96-well plates containing 100 μL of serially diluted peptides in PBS at desired concentration was inoculated with 100 μL of 1 × 10^5 (CFU) mL^−1 of bacterial suspensions. Then, plates were incubated overnight at 37 °C and absorbance was read at 590 nm in a Flex Station 3 multi-mode microplate reader (Molecular Devices). An absorbance reading in wells without a peptide representing unrestrained bacterial growth was taken as positive control (100% bacterial survival). Readings in wells without bacteria were taken as negative controls. All measurements were run in triplicates.

E. coli = type: cell-based, Escherichia coli ATCC 25922
Protocol: as §2, §3

neutrophil elastase = neutrophil elastase (Homo sapiens, UniProt P08246); details: 5 μg peptide, 0.05 μg protease, PBS, 25 μL, 37 °C, 1 h and 18 h; SDS-PAGE, Coomassie
Protocol: as §1

recombinant human PAD4 = recombinant human PAD4 (Homo sapiens, UniProt Q9UM07)
Sequence of recombinant human PAD4 (Q9UM07 whole entry): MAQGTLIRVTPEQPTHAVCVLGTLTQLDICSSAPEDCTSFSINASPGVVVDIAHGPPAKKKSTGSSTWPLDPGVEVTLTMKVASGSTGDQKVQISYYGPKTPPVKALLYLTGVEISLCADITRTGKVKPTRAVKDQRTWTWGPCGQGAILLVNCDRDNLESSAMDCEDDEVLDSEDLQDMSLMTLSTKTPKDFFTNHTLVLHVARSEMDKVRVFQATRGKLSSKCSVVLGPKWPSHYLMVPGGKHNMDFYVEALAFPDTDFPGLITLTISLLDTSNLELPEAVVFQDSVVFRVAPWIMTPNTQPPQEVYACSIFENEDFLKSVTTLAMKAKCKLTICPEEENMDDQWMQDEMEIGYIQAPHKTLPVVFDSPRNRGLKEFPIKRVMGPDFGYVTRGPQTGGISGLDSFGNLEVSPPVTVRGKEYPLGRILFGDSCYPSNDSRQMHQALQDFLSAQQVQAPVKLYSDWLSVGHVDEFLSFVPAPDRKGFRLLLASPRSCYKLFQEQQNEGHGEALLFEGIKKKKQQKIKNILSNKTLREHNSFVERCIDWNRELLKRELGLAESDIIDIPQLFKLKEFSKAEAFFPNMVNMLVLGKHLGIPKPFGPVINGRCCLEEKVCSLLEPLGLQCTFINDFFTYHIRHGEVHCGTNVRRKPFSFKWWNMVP
Protocol: PAD4 activity was determined on N-α-benzoyl-L-arginine ethyl ester hydrochloride (BAEE) substrate with colorimetric assay [33].
Citrullination was terminated by snap-freezing the samples.
Reaction was terminated by addition of TFA (final concentration 0.1%) (Sigma) and samples were analyzed via HPLC. Separation was achieved on a reverse-phase column Aeris XB-C18, 3.6 μm, 4.6/150 (Phenomenex) connected to ÄKTAmicro (GE Healthcare). Peptides were eluted in the gradient of Phase A (0.1% TFA in water) and Phase B (80% acetonitrile, 0.08% TFA in water) and monitored at 215 nm.

Sequence of V8 protease (P0C1U8 69-336): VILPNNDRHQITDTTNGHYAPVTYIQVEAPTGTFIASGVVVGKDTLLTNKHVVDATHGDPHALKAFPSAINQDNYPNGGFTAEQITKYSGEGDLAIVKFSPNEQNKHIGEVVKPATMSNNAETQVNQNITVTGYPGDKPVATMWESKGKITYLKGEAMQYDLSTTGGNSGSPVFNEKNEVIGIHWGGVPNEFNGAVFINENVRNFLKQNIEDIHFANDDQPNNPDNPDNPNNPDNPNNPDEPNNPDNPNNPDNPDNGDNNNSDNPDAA
Sequence of cathepsin G (P08311 21-255): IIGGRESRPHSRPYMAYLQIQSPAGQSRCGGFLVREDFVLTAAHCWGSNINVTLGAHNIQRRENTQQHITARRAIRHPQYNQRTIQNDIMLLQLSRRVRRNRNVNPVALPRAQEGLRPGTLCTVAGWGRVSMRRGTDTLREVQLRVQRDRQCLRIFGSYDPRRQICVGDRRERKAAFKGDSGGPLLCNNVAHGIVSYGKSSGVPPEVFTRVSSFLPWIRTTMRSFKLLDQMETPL
Sequence of aureolysin (P81177 209-509): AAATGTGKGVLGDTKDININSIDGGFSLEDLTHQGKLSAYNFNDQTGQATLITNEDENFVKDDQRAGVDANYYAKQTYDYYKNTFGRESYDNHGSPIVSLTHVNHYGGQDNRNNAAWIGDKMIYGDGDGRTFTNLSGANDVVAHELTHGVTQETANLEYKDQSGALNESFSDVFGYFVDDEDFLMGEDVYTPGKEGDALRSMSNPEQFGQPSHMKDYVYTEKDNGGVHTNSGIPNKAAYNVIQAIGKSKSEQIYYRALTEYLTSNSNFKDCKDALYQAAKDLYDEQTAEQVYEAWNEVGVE
Sequence of neutrophil elastase (P08246 30-267): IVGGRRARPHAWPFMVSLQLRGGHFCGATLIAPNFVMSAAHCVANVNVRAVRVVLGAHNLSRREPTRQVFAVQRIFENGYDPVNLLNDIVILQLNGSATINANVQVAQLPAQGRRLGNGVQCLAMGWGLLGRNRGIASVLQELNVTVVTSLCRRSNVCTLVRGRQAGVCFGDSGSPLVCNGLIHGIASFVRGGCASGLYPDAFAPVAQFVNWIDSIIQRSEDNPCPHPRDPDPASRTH

SMILES: CC[C@H](C)[C@H](NC(=O)[C@H](CCCCN)NC(=O)[C@H](CCC(=O)O)NC(=O)[C@H](CCCCN)NC(=O)[C@H](CO)NC(=O)[C@H](CCCCN)NC(=O)[C@H](CCCNC(=N)N)NC(=O)[C@H](Cc1ccccc1)NC(=O)[C@H](Cc1ccccc1)NC(=O)[C@H](CC(=O)O)NC(=O)CNC(=O)[C@H](CC(C)C)NC(=O)[C@@H](N)CC(C)C)C(=O)NCC(=O)N[C@@H](CCCCN)C(=O)N[C@@H](CCC(=O)O)C(=O)N[C@@H](Cc1ccccc1)C(=O)N[C@@H](CCCCN)C(=O)N[C@@H](CCCNC(=N)N)C(=O)N[C@H](C(=O)N[C@H](C(=O)N[C@@H](CCC(N)=O)C(=O)N[C@@H](CCCNC(=N)N)C(=O)N[C@H](C(=O)N[C@@H](CCCCN)C(=O)N[C@@H](CC(=O)O)C(=O)N[C@@H](Cc1ccccc1)C(=O)N[C@@H](CC(C)C)C(=O)N[C@@H](CCCNC(=N)N)C(=O)N[C@@H](CC(N)=O)C(=O)N[C@@H](CC(C)C)C(=O)N[C@H](C(=O)N1CCC[C@H]1C(=O)N[C@@H](CCCNC(=N)N)C(=O)N[C@H](C(=O)N[C@@H](CCC(=O)O)C(=O)N[C@@H](CO)C(=O)O)[C@@H](C)O)C(C)C)[C@@H](C)CC)C(C)C)[C@@H](C)CC [LL-37]
- Safety and tolerability (venous leg ulcers): no safety or tolerability concerns were noted
- Degradation in NETs [1]: gradually degraded
- Toxicity, LDH release (HaCaT cells; peptide 10 μg/mL): did not compromise the membrane permeability
- Toxicity, LDH release (HaCaT cells; peptide 25 μg/mL): did not compromise the membrane permeability
- Toxicity, LDH release (HaCaT cells; peptide 75 μg/mL): low, but still significant, release of LDH
- Degradation by V8 protease (V8 protease): similarly sensitive
- Degradation by aureolysin (aureolysin): similarly sensitive
- Degradation by cathepsin G (cathepsin G; 5 μg peptide, 0.5 μg protease, PBS, 25 μL, 37 °C, 1 h and 18 h, SDS-PAGE, Coomassie): did not differ

SMILES: CC[C@H](C)[C@H](NC(=O)[C@H](CCCCN)NC(=O)[C@H](CCC(=O)O)NC(=O)[C@H](CCCCN)NC(=O)[C@H](CO)NC(=O)[C@H](CCCCN)NC(=O)[C@H](CCCCNC(=N)N)NC(=O)[C@H](Cc1ccccc1)NC(=O)[C@H](Cc1ccccc1)NC(=O)[C@H](CC(=O)O)NC(=O)CNC(=O)[C@H](CC(C)C)NC(=O)[C@@H](N)CC(C)C)C(=O)NCC(=O)N[C@@H](CCCCN)C(=O)N[C@@H](CCC(=O)O)C(=O)N[C@@H](Cc1ccccc1)C(=O)N[C@@H](CCCCN)C(=O)N[C@@H](CCCCNC(=N)N)C(=O)N[C@H](C(=O)N[C@H](C(=O)N[C@@H](CCC(N)=O)C(=O)N[C@@H](CCCCNC(=N)N)C(=O)N[C@H](C(=O)N[C@@H](CCCCN)C(=O)N[C@@H](CC(=O)O)C(=O)N[C@@H](Cc1ccccc1)C(=O)N[C@@H](CC(C)C)C(=O)N[C@@H](CCCCNC(=N)N)C(=O)N[C@@H](CC(N)=O)C(=O)N[C@@H](CC(C)C)C(=O)N[C@H](C(=O)N1CCC[C@H]1C(=O)N[C@@H](CCCCNC(=N)N)C(=O)N[C@H](C(=O)N[C@@H](CCC(=O)O)C(=O)N[C@@H](CO)C(=O)O)[C@@H](C)O)C(C)C)[C@@H](C)CC)C(C)C)[C@@H](C)CC [hArg-LL-37]
- MIC (minimal inhibitory concentration) (P. aeruginosa): 50 µg/mL (≈ 11 µM)
- MIC (minimal inhibitory concentration) (E. coli): 50 µg/mL (≈ 11 µM)
- Degradation by V8 protease (V8 protease): similarly sensitive
- Degradation by aureolysin (aureolysin): similarly sensitive
- Degradation by neutrophil elastase (neutrophil elastase): degraded more rapidly by neutrophil elastase than LL-37
- Degradation by cathepsin G (cathepsin G): did not differ
- Modification (citrullination) by PAD4 (recombinant human PAD4): did not evidently modify
